As usually defined, the Tmax is the time at which the peak concentration occurs. As usually defined, the half-life is how long it takes for the measured level to halve.

The results in this text go back to paper PMC5762204 (Journal of Pharmaceutical Analysis, 2014).

This data set in a line: Pharmacokinetic study in rats after oral administration. The class given is in vivo. The note with it: male, Wistar, rat, plasma.

For the compound `CCC(C)(C)C(=O)O[C@H]1C[C@@H](C)C=C2C=C[C@H](C)[C@H](CC[C@@H]3C[C@@H](O)CC(=O)O3)[C@H]21` [Simvastatin, simvastatin], the Tmax worked out at 0.75 h and the half-life is 5.6 ± 0.1 h.
The matching figures for `N[C@@H](CC(=O)N1CCn2c(nnc2C(F)(F)F)C1)Cc1cc(F)c(F)cc1F` [Sitagliptin, sitagliptin]: 1 h and 6.1 ± 0.2 h.
